{"source": "patent US4485239A", "about": "“2-(2,6-Dimethyl-3,5-diethoxycarbonyl-1,4-dihydropyridine-4-carboxamide glutaric acid its disodium salt and method of their preparation” (priority 1982, dated 1984)", "key": {"Solubility in water": {"assay": "Solubility in water", "assay_type": "physicochemical"}, "cardiovascular system": {"tested_on": "cardiovascular system", "assay": "Acute experiments in narcotized cats: arterial pressure, respiration, ECG and haemodynamic effects of acetyl choline", "assay_type": "in vivo", "description": "In acute experiments with cats narcotized with chloralose and urethane arterial pressure, respiration and ECG were recorded. The influence of the above comound on the arterial pressure, respiration, and on the haemodynamic effects of acetyl choline were investigated. Anaqueous solution of the compound was administered intravenously."}, "Strophanthin arrhythmia": {"tested_on": "Strophanthin arrhythmia", "assay": "Arrest of strophanthin arrhythmia in guinea pigs", "assay_type": "in vivo", "conditions": "for ED50: Cavia porcellus, read-out: ED50, strophanthin arrhythmia in guinea pigs"}, "[1]": {"tested_on": "experimental models of arrhythmia", "assay": "Antiarrhythmic activity on experimental models of arrhythmia (calcium, aconitic and strophanthin), overall", "assay_type": "in vivo, mice, rats, guinea pigs", "conditions": "for antiarrhythmic activity: in vivo", "description": "The action of 2-(2,6-dimethyl-3,5-diethoxycarbonyl-1,4-dihydropyridine-4-carboxamide) glutaric acid and its disodium salt on the cardiovascular system was studied in experiments with mice, rats, guinea pigs and cats. […] Antiarrhythmic agents such as quinidine and novocaine amide (procaine amide) were used for comparisons in the […] study.\n(§1) In the experiments on white mice narcotized with urethane ECGs were recorded in the second standard lead. A 2% solution of calcium chloride was injected into the tail vein at a constant rate (00.1 ml during 2 seconds).\n(§2) Comparative study of the antiarrhythmic activity of the compounds on an aconitic model of arrhythmia was carried out on albino rats narcotized with urethane and chloralose (intraperitoneally), ECGs were recorded in the second standard lead.\nGuinea pigs were narcotized with urethane and chloralose then strophanthin was administered in them, and against the background of arrhythmia, the above compound was administered intravenously. The doses of the compound, that arrest the strophanthin arrhythmia in the guinea pigs were recorded."}, "[2]": {"tested_on": "arrythmogenic and lethal effects of calcium chloride", "assay": "Antagonism towards the arrhythmogenic and lethal effects of calcium chloride in mice (ECG)", "assay_type": "in vivo", "description": "as §1"}, "white mice": {"tested_on": "white mice", "assay": "in vivo", "conditions": "intraperitoneal", "excerpt": "(§3) Acute toxicity was investigated on mongrel white mice of both sexes (Table 2)."}, "in vivo": {"assay": "in vivo", "conditions": "mouse, in vivo, ip", "excerpt": "as §3"}, "Aconitic arrhythmia": {"tested_on": "Aconitic arrhythmia", "assay": "Antiarrhythmic activity on aconitic model of arrhythmia in rats", "assay_type": "in vivo, albino rats", "conditions": "for ED50: Rattus norvegicus, ip, read-out: ED50, aconitic arrhythmia in rats (average effective antiarrhythmic dose)", "description": "as §2"}, "cardiac arrhythmia": {"tested_on": "cardiac arrhythmia", "conditions": "cited from earlier work; for antiarrhythmic activity / effect on arterial pressure (side-effect): medical practice; for antiarrhythmic activity / effect on arterial pressure (side-effect) / toxicity: prior art"}, "[3]": {"conditions": "cats, intravenous, 0.1-0.2 g/kg"}, "[4]": {"conditions": "guinea pigs, intravenous, against background of arrhythmia"}, "[5]": {"conditions": "strophanthin arrhythmia, guinea pigs"}, "[6]": {"conditions": "compound dose 3 mg/kg intraperitoneally"}, "[7]": {"conditions": "compound dose 6 mg/kg intraperitoneally"}, "[8]": {"conditions": "compound dose 10 mg/kg intraperitoneally"}, "[9]": {"conditions": "compound dose 30 mg/kg intraperitoneally"}}, "note": "Structures can show the parent of a compound that is named as a salt. Where two headings read alike, the source gives them in different places."}
{"smiles": "CCOC(=O)C1=C(C)NC(C)=C(C(=O)OCC)C1C(=O)NC(CCC(=O)O)C(=O)O", "note": "(stereo not shown) [Compound of formula II, disodium salt of 2-(2,6-dimethyl-3,5-diethoxycarbonyl-1,4-dihydropyridine-4-carboxamide) glutaric acid]", "values": [{"measurement": "solubility in water", "setting": "Solubility in water", "result": "well soluble in water"}, {"measurement": "change in arterial pressure", "setting": "cardiovascular system; [3]", "result": "does not cause any significant change"}, {"measurement": "change in pulse rate", "setting": "cardiovascular system; [3]", "result": "does not cause any significant change"}, {"measurement": "change in respiration rate", "setting": "cardiovascular system; [3]", "result": "does not cause any significant change"}, {"measurement": "response reaction to acetyl choline", "setting": "cardiovascular system; cats, intravenous, doses of up to 4 mg/kg", "result": "does not reduce the response reaction to acetyl choline"}, {"measurement": "drop of the arterial pressure", "setting": "cardiovascular system; intravenous application", "result": "does not cause a drastic drop of the arterial pressure"}, {"measurement": "ED50", "setting": "Strophanthin arrhythmia; [4]", "result": "2.1 ± 0.3", "unit": "mg/kg"}, {"measurement": "effect on experimental strophanthin arrhythmia", "setting": "Strophanthin arrhythmia; guinea pig, in vivo", "result": "stable effect"}, {"measurement": "activity compared with quinidine", "setting": "Strophanthin arrhythmia; [5]", "result": "not inferior to quinidine"}, {"measurement": "activity relative to novocaine amide", "setting": "Strophanthin arrhythmia; [5]", "result": "approximately 25 fold"}, {"measurement": "activity on experimental models of arrhythmia compared with quinidine and novocaine amide", "setting": "[1]; calcium, aconitic and strophanthin models", "result": "higher activity on all kinds of experimental models of arrhythmia"}, {"measurement": "antiarrhythmic activity", "setting": "[1]", "result": "pronounced antiarrhythmic activity"}, {"measurement": "Dose of CaCl2, arrhythmogenic", "setting": "[2]; [6]", "result": 98.4, "unit": "mg/kg"}, {"measurement": "Dose of CaCl2, lethal", "setting": "[2]; [6]", "result": 105.0, "unit": "mg/kg"}, {"measurement": "Dose of CaCl2, arrhythmogenic", "setting": "[2]; [7]", "result": 127.4, "unit": "mg/kg"}, {"measurement": "Dose of CaCl2, lethal", "setting": "[2]; [7]", "result": 134.5, "unit": "mg/kg"}, {"measurement": "Dose of CaCl2, arrhythmogenic", "setting": "[2]; [8]", "result": 130.5, "unit": "mg/kg"}, {"measurement": "Dose of CaCl2, lethal", "setting": "[2]; [8]", "result": 140.5, "unit": "mg/kg"}, {"measurement": "effect on arrhythmogenic and lethal doses of calcium chloride", "setting": "[2]; preliminary administration 20-30 minutes prior to narcosis, mice", "result": "considerably increases"}, {"measurement": "toxicity relative to novocaine amide", "setting": "white mice; mice", "result": "1/17"}, {"measurement": "toxicity relative to quinidine", "setting": "white mice; mice", "result": "1/12"}, {"measurement": "LD50", "setting": "in vivo", "result": "> 2000", "unit": "mg/kg"}, {"measurement": "ED50", "setting": "Aconitic arrhythmia", "result": "3 ± 0.5", "unit": "mg/kg"}, {"measurement": "antiarrhythmic activity compared with quinidine and novocaine amide", "setting": "Aconitic arrhythmia; aconitic model, rats, intraperitoneal 30-40 minutes before aconitine", "result": "higher antiarrhythmic activity than quinidine and novocane amide"}]}
{"smiles": "CCOC(=O)C1=C(C)NC(C)=C(C(=O)OCC)C1C(=O)NC(CCC(=O)O)C(=O)O", "note": "(stereo not shown) [Compound of formula I, 2-(2,6-dimethyl-3,5-diethoxycarbonyl-1,4-dihydropyridine-4-carboxamide) glutaric acid]", "values": [{"measurement": "solubility in water", "setting": "Solubility in water", "result": "hardly soluble in water"}, {"measurement": "antiarrhythmic activity", "setting": "[1]", "result": "pronouncedantiarrhythmic activity"}, {"measurement": "antiarrhythmic effect compared with novocaine amide", "setting": "[2]; novocaine amide dose 30 mg/kg, CaCl2 model, mice", "result": "same antiarrhythic effect as novocaine amide in a dose of 30 mg/kg"}]}
{"smiles": "CCN(CC)CCNC(=O)c1ccc(N)cc1", "note": "[Novocaine amide, reference compound]", "values": [{"measurement": "ED50", "setting": "Strophanthin arrhythmia; [4]", "result": "55 ± 7.3", "unit": "mg/kg"}, {"measurement": "Dose of CaCl2, arrhythmogenic", "setting": "[2]; [8]", "result": 116.0, "unit": "mg/kg"}, {"measurement": "Dose of CaCl2, lethal", "setting": "[2]; [8]", "result": 120.0, "unit": "mg/kg"}, {"measurement": "Dose of CaCl2, arrhythmogenic", "setting": "[2]; [9]", "result": 127.0, "unit": "mg/kg"}, {"measurement": "Dose of CaCl2, lethal", "setting": "[2]; [9]", "result": 138.0, "unit": "mg/kg"}, {"measurement": "LD50", "setting": "in vivo", "result": 290, "unit": "mg/kg"}, {"measurement": "antiarrhythmic activity", "setting": "cardiac arrhythmia", "result": "insufficient antiarrthythmic activity"}, {"measurement": "effect on arterial pressure (side-effect)", "setting": "cardiac arrhythmia", "result": "drastically reduce the arterial pressure"}, {"measurement": "toxicity", "setting": "cardiac arrhythmia", "result": "toxic"}, {"measurement": "ED50", "setting": "Aconitic arrhythmia", "result": "45 ± 5", "unit": "mg/kg"}]}
{"smiles": "C=C[C@H]1C[N@@]2CC[C@H]1C[C@@H]2[C@@H](O)c1ccnc2ccc(OC)cc12", "note": "[Quinidine, reference compound]", "values": [{"measurement": "ED50", "setting": "Strophanthin arrhythmia; iv", "result": "2.3 ± 0.4", "unit": "mg/kg"}, {"measurement": "Dose of CaCl2, arrhythmogenic", "setting": "[2]; [6]", "result": 126.9, "unit": "mg/kg"}, {"measurement": "Dose of CaCl2, lethal", "setting": "[2]; [6]", "result": 136.0, "unit": "mg/kg"}, {"measurement": "Dose of CaCl2, arrhythmogenic", "setting": "[2]; [8]", "result": 120.8, "unit": "mg/kg"}, {"measurement": "Dose of CaCl2, lethal", "setting": "[2]; [8]", "result": 133.5, "unit": "mg/kg"}, {"measurement": "Acute toxicity, LD50", "setting": "white mice; white mice, confidence limit at P = 0.05", "result": 156, "unit": "mg/kg"}, {"measurement": "LD50", "setting": "in vivo", "result": 156, "unit": "mg/kg"}, {"measurement": "effect on strophanthin arrhythmia, in clinic", "setting": "cardiac arrhythmia; clinic", "result": "in some cases is ineffective"}, {"measurement": "antiarrhythmic activity", "setting": "cardiac arrhythmia", "result": "insufficient antiarrthythmic activity"}, {"measurement": "effect on arterial pressure (side-effect)", "setting": "cardiac arrhythmia", "result": "drastically reduce the arterial pressure"}, {"measurement": "toxicity", "setting": "cardiac arrhythmia", "result": "toxic"}, {"measurement": "ED50", "setting": "Aconitic arrhythmia", "result": "4.3 ± 0.6", "unit": "mg/kg"}]}
